Results published in PubChem BioAssay (NCI).
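Five concentrations, 48 hours, 96-well plates. The concentration for 50% growth inhibition is given as GI50. TGI: concentration producing complete growth inhibition.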

Assays:
Assay in all cases: NCI anticancer screen, dose series, 48 h
[1] = system: HOP-62 NSCLC
[2] = system: SK-MEL-5 melanoma
[3] = system: OVCAR-5 ovarian
[4] = system: LOX IMVI melanoma
[5] = system: M14 melanoma
[6] = system: MCF7 breast
[7] = system: HOP-92 NSCLC
[8] = system: MOLT-4 leukemia
[9] = system: UO-31 renal
[10] = system: BT-549 breast

With `N#C/C(C(=O)Nc1ccc(Cl)cc1)=C(/N)N1CCCC1` the TGI [1] was > 100 µM, the TGI [2] was > 100 µM and the TGI [3] was > 100 µM. For the same molecule, the TGI [4] was > 100 µM, the TGI [5] was > 100 µM and the TGI [6] was > 100 µM. The TGI [7] was > 100 µM, the TGI [8] was > 100 µM and the TGI [9] was > 100 µM. The TGI [10] was > 100 µM.

For `CC[C@H](Nc1nc(C)nc(N)c1C#N)c1nc2cccc(NCc3ccc(C(=O)NO)cc3)c2c(=O)n1-c1ccccc1`, the GI50 [1] was 1.49 µM, the TGI [1] was 3.09 µM and the GI50 [2] was 1.84 µM. It also gave a TGI [2] of 3.47 µM, a GI50 [3] of 1.51 µM and a TGI [3] of 3.32 µM. It also gave a GI50 [4] of 1.65 µM, a TGI [4] of 3.04 µM and a GI50 [5] of 2.28 µM. For the same molecule, the TGI [5] was 5.85 µM, the GI50 [6] was 2.07 µM and the TGI [6] was 5.89 µM. For the same molecule, the GI50 [7] was 1.38 µM, the TGI [7] was 3.07 µM and the GI50 [8] was 1.36 µM. The TGI [8] was 5.82 µM, the GI50 [9] was 1.21 µM and the TGI [9] was 2.47 µM. It also gave a GI50 [10] of 1.93 µM and a TGI [10] of 4.56 µM.

`O=C(CCc1cc(O)cc(O)c1)NCCCNC(=O)CCc1cc(O)cc(O)c1` was tested, and the TGI [1] was > 100 µM, the TGI [2] was > 100 µM and the TGI [3] was > 100 µM. For the same molecule, the TGI [4] was > 100 µM, the TGI [5] was > 100 µM and the TGI [6] was > 100 µM. For the same molecule, the TGI [7] was > 100 µM, the TGI [8] was > 100 µM and the TGI [9] was > 100 µM. The TGI [10] was > 100 µM.

`COc1cc(C(=O)Oc2ccc3c(c2)OCO3)cc(OC)c1OC` was tested, and the TGI [1] was > 100 µM, the TGI [2] was > 100 µM and the TGI [3] was > 100 µM. The TGI [4] was > 100 µM, the TGI [5] was > 100 µM and the TGI [6] was > 100 µM. For the same molecule, the TGI [7] was > 100 µM, the TGI [8] was > 100 µM and the TGI [9] was > 100 µM. The TGI [10] was > 100 µM.

`C=C1C(OC2O[C@@H]3O[C@@]4(C)CC[C@H]5[C@H](C)CC[C@@H](C2=C)[C@@]35O4)O[C@@H]2O[C@@]3(C)CC[C@H]4[C@H](C)CC[C@@H]1[C@@]24O3` (stereo partly drawn) was tested, and the TGI [1] was > 50 µM, the TGI [2] was > 50 µM and the TGI [3] was > 50 µM. The TGI [4] was > 50 µM, the TGI [5] was > 50 µM and the TGI [6] was > 50 µM. The TGI [7] was > 50 µM, the TGI [8] was > 50 µM and the TGI [9] was > 50 µM. For the same molecule, the TGI [10] was > 50 µM.

In the case of `COc1ccc(-c2c3c(n(C4OC(CO)C(O)C(O)C4O)c(=S)c2C#N)CCC3)cc1` (stereo not drawn), the TGI [1] is reported as > 100 µM, the TGI [2] is reported as 38.8 µM and the TGI [3] is reported as > 100 µM. For the same molecule, the TGI [4] was > 100 µM, the TGI [5] was > 100 µM and the TGI [6] was > 100 µM. The TGI [7] was > 100 µM, the TGI [8] was 85.4 µM and the TGI [9] was > 100 µM. The TGI [10] was > 100 µM.

For `C=C1OC(c2ccccc2NC)=NC12CCCCC2`, the TGI [1] was > 100 µM, the TGI [2] was > 100 µM and the TGI [3] was > 100 µM. The TGI [4] was > 100 µM, the TGI [5] was > 100 µM and the TGI [6] was > 100 µM. The TGI [7] was > 100 µM, the TGI [8] was > 100 µM and the TGI [9] was > 100 µM. The TGI [10] was > 100 µM.

In the case of `CC1(C)OCC2OC3([C@@H]4OC(C)(C)O[C@H]4CO)OC(C)(C)OC3C2O1` (stereo partly drawn), the TGI [1] is reported as > 100 µM, the TGI [2] is reported as > 100 µM and the TGI [3] is reported as > 100 µM. The TGI [4] was > 100 µM, the TGI [5] was > 100 µM and the TGI [6] was > 100 µM. For the same molecule, the TGI [7] was > 100 µM, the TGI [8] was > 100 µM and the TGI [9] was > 100 µM. For the same molecule, the TGI [10] was > 100 µM.

In the case of `Cn1c(=O)c2c(nc3n(Cc4ccccc4)c(=O)c(NCCCBr)cn23)n(C)c1=O`, the TGI [1] is reported as > 100 µM, the TGI [2] is reported as > 100 µM and the TGI [3] is reported as > 100 µM. The TGI [4] was > 100 µM, the TGI [5] was > 100 µM and the TGI [6] was > 100 µM. For the same molecule, the TGI [7] was 58.5 µM, the TGI [8] was > 100 µM and the TGI [9] was > 100 µM. The TGI [10] was > 100 µM.

In the case of `CC(=O)OCC1OC(n2c(-c3ccccc3)c(N=Nc3ccccc3)c(C)c(C#N)c2=S)C(OC(C)=O)C(OC(C)=O)C1OC(C)=O` (stereo not drawn), the TGI [1] is reported as > 100 µM, the TGI [2] is reported as > 100 µM and the TGI [3] is reported as > 100 µM. The TGI [4] was > 100 µM, the TGI [5] was > 100 µM and the TGI [6] was > 100 µM. For the same molecule, the TGI [7] was > 100 µM, the TGI [8] was > 100 µM and the TGI [9] was > 100 µM. For the same molecule, the TGI [10] was > 100 µM.

`O=c1nc2c(c(-c3ccc(Br)cc3)[nH]1)COC/C2=C\c1ccc(Br)cc1` was tested, and the TGI [1] was > 50 µM, the TGI [2] was > 50 µM and the TGI [3] was > 50 µM. For the same molecule, the TGI [4] was > 50 µM, the TGI [5] was > 50 µM and the TGI [6] was > 50 µM. The TGI [7] was > 50 µM, the TGI [8] was > 50 µM and the TGI [9] was > 50 µM. The TGI [10] was > 50 µM.

For `Cc1ccc2c(c1)-c1c(C#N)c(N)nc(-c3ccc(Cl)cc3)c1CCS2(=O)=O`, the TGI [1] was > 100 µM, the TGI [2] was > 68 µM and the TGI [3] was > 100 µM. The TGI [4] was > 100 µM, the TGI [5] was > 100 µM and the TGI [6] was > 100 µM. The TGI [7] was > 100 µM, the TGI [8] was 68.7 µM and the TGI [9] was > 100 µM. The TGI [10] was > 100 µM.

In the case of `OCCOCn1nncc1Cn1ncc2c(SCc3ccccc3)ncnc21`, the TGI [1] is reported as > 100 µM, the TGI [2] is reported as > 100 µM and the TGI [3] is reported as > 100 µM. For the same molecule, the TGI [4] was > 100 µM, the TGI [5] was > 100 µM and the TGI [6] was > 100 µM. The TGI [7] was > 100 µM, the TGI [8] was 34 µM and the TGI [9] was > 100 µM. For the same molecule, the TGI [10] was > 100 µM.

`CCc1c(CNc2ccc(C(=O)NC(CC(=O)O)C(=O)O)cc2)ccc2nc(N)nc(N)c12` (stereo not drawn) was tested, and the TGI [1] was > 1000 µM, the TGI [2] was > 1000 µM and the TGI [3] was > 1000 µM. The TGI [4] was > 1000 µM, the TGI [5] was > 1000 µM and the TGI [6] was > 1000 µM. For the same molecule, the GI50 [7] was > 1000 µM, the TGI [7] was > 1000 µM and the TGI [8] was > 1000 µM. The GI50 [9] was 0.212 µM, the TGI [9] was > 1000 µM and the GI50 [10] was 685 µM. The TGI [10] was > 1000 µM.

`COc1ccc(/C=c2\s/c(=C3/SC(=S)N(c4ccccc4)C3=O)n(-c3ccccc3)c2=O)cc1` was tested, and the TGI [1] was 69.9 µM, the TGI [2] was > 100 µM and the TGI [3] was > 100 µM. The TGI [4] was > 100 µM, the TGI [5] was > 100 µM and the TGI [6] was > 100 µM. The TGI [7] was > 100 µM, the TGI [8] was 72.8 µM and the TGI [9] was > 100 µM. The TGI [10] was > 100 µM.

With `C[C@]12CCC(=O)[C@@H](CCC3=CC(=O)C=CC3=O)[C@@H]1CCC2=O` the TGI [1] was > 100 µM, the TGI [2] was 20.7 µM and the TGI [3] was > 75.1 µM. The TGI [4] was 39.3 µM, the TGI [5] was 59.1 µM and the TGI [6] was 37.2 µM. The TGI [7] was > 100 µM, the TGI [8] was > 100 µM and the TGI [9] was 31.1 µM. The TGI [10] was 30.2 µM.
